Like-named read-outs stand apart in the source and are kept apart here.
Key:
AtIspF = AtIspF (Arabidopsis thaliana, UniProt Q9CAK8); assay: University of Hamburg photometric enzymatic inhibition assay AtIspF; assay type: biochemical; settings: read-out: AtIspF IC50
Summary of the method: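 Coupled photometric assay (CMP kinase/pyruvate kinase/lactate dehydrogenase, NADH consumption) with 2.4 mU AtIspF and 1 mM 4-diphosphocytidyl-2C-methylerythritol 2-phosphate, 2 mM ATP, in 100 mM Tris-HCl pH 8.0, 10 mM MgCl2, 1.1% DMSO. Monitored at 27 °C.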

Corynebacterium xerosis [1] = assay: Antibacterial assay zone of inhibition Cx; assay type: cell-based
[2] = biological target: T1, Mycobacterium tuberculosis IspD (MtIspD) (Mycobacterium tuberculosis, UniProt P9WKG9); assay: Thermal shift assay against MtIspD; assay type: binding
T1 sequence (P9WKG9 1-231): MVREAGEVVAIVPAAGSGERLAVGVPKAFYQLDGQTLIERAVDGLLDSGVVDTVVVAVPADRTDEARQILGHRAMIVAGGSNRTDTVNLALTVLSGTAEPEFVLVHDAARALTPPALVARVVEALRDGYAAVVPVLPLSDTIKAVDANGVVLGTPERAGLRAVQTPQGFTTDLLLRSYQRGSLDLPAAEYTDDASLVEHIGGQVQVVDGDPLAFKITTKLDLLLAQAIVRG

[3] = biological target: Lycopersicon esculentum IspE (LeIspE) (Solanum lycopersicum, UniProt P93841); assay: Thermal shift assay against LeIspE; assay type: binding
Klebsiella pneumonia [4] = assay: Antibacterial preliminary screening KP; assay type: cell-based; settings: score 0-3; also: key: 0 represents no inhibition; 3 is comparable to commercial antibiotic control
lettuce seeds = assay: Lettuce leaf assay; assay type: in vivo; set-up: key: 0 (no effect); 5(complete inhibition or bleaching); settings: ranking 0-5
Summary of the method: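 Qualitative assay: compounds in volatile organic solvent applied to filter paper in a petri dish, solvent evaporated, lettuce seeds and 5 mL water added to give test concentrations. Germination, root development and leaf bleaching scored days 3 and 4, ranked 0 (no effect) to 5 (complete inhibition or bleaching).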

Micrococcus luteus [5] = assay: Antibacterial preliminary screening ML; assay type: cell-based; settings: score 0-3; also: key: 0 represents no inhibition; 3 is comparable to commercial antibiotic control
Ec IspE = Ec IspE (Escherichia coli, UniProt P62615); assay: Kinase-Glo luminescent enzymatic assay Ec IspE; assay type: biochemical
[6] = system: Corynebacterium pseudodiphtheriae; assay: Antibacterial assay zone of inhibition Cp; assay type: cell-based
Bacillus cereus [7] = assay: Antibacterial assay zone of inhibition Bc; assay type: cell-based
Escherichia coli [8] = assay: Antibacterial preliminary screening EC; assay type: cell-based; settings: score 0-3; also: key: 0 represents no inhibition; 3 is comparable to commercial antibiotic control
[9] = system: Burkholderia thailandensis; assay type: cell-based
[10] = system: Corynebacterium pseudodiphtheriae; assay: Antibacterial preliminary screening CP; assay type: cell-based; settings: score 0-3;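 also: 0 is no inhibition and 3 matches the commercial antibiotic control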
Escherichia coli [11] = assay: Antibacterial assay zone of inhibition Ec; assay type: cell-based
Corynebacterium xerosis [12] = assay: Antibacterial preliminary screening CX; assay type: cell-based; settings: score 0-3; also: key: 0 represents no inhibition; 3 is comparable to commercial antibiotic control
[13] = system: Burkholderia thailandensis; assay type: cell-based; settings: preliminary screening, score 0-3
Mycobacterium smegmatis [14] = assay: Antibacterial assay zone of inhibition Ms; assay type: cell-based
Pseudomonas aeruginosa [15] = assay: Antibacterial assay zone of inhibition Pa; assay type: cell-based
Bacillus cereus [16] = assay: Antibacterial preliminary screening BC; assay type: cell-based; settings: score 0-3; also: key: 0 represents no inhibition; 3 is comparable to commercial antibiotic control
Klebsiella pneumonia [17] = assay: Antibacterial assay zone of inhibition Kp; assay type: cell-based
Micrococcus luteus [18] = assay: Antibacterial assay zone of inhibition Ml; assay type: cell-based
Pseudomonas aeruginosa [19] = assay: Antibacterial preliminary screening PA; assay type: cell-based
Mycobacterium smegmatis [20] = assay: Antibacterial preliminary screening MS; assay type: cell-based; settings: score 0-3; also: key: 0 represents no inhibition; 3 is comparable to commercial antibiotic control
LeIspE = LeIspE (Solanum lycopersicum, UniProt P93841); assay: University of Hamburg photometric enzymatic inhibition assay LeIspE; assay type: biochemical, Lycopersicon esculentum; settings: read-out: LeIspE IC50
Summary of the method: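 Photometric coupled assay with pyruvate kinase/lactate dehydrogenase following NADH (460 μM). Mix: 100 mM Tris-HCl pH 8.0, 10 mM MgCl2, 1 mM DTT, 2.5 mM phosphoenolpyruvate, 2 mM ATP, 1 mM 4-diphosphocytidyl-2-C-methylerythritol, 1.1% DMSO, 2.4 mU IspE; incubated at 27° C.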

Bt IspE [21] = biological target: T2, Bt IspE (Burkholderia thailandensis, UniProt Q2T1B6); assay: biochemical
Bt IspE [22] = biological target: T2, Bt IspE; assay: ITC binding study with Bt IspE
Protocol: All ITC experiments were performed under the same conditions as described herein. Compounds were dissolved in DMSO and brought to concentration with the dialysis buffer, with a maximum DMSO concentration of 10% by volume which was matched between ligand and enzyme, and centrifuged at 10,000 RPM for 10 minutes. The dialysis buffer was used for all sample dilutions to ensure buffers matching between the titrant and titrate, thus minimizing the excess heat due to buffer mismatch. ITC experiments were performed with IspE in the cell and ligand in the syringe. The initial injection volume was 2 μL (omitted) followed by 27 10 μL injections, every 240 seconds. Samples were run at 25° C., at pH 7.4, with a stirring speed of 307 RPM. Dilution runs were performed to allow determination of background heats caused by solution mismatch and instrument noise. Dilution runs were performed with ligand (at the same concentration as in the experiment run) in the syringe titrated into the dialysis buffer in the cell. Data were fit using OriginPro 7 with the ITC add-on by the manufacturer.

AtIspD = AtIspD (Arabidopsis thaliana, UniProt P69834); assay: University of Hamburg photometric enzymatic inhibition assay AtIspD; assay type: biochemical; settings: read-out: AtIspD IC50
Summary of the method: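 Coupled photometric assay: 2.4 mU AtIspD with 1 mM (2R,3S)-2,3-dihydroxy-4-oxopentyl phosphate, 2.1 mM CTP, excess IspE (0.4 U), ATP, pyruvate kinase/lactate dehydrogenase and 460 μM NADH. Run in 100 mM Tris-HCl pH 8.0, 10 mM MgCl2, 1 mM DTT, 1.1% DMSO at 27 °C, monitored photometrically.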

T2 sequence (Q2T1B6 whole entry): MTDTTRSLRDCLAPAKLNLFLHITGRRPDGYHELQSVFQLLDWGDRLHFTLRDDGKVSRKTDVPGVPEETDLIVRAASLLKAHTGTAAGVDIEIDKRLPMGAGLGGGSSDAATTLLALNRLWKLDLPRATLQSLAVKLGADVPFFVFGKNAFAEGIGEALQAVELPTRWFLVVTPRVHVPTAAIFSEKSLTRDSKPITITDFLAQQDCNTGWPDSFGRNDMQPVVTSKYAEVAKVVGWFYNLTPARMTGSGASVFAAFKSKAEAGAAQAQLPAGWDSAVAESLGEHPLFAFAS
Sequence of Lycopersicon esculentum IspE (LeIspE) (P93841 89-401): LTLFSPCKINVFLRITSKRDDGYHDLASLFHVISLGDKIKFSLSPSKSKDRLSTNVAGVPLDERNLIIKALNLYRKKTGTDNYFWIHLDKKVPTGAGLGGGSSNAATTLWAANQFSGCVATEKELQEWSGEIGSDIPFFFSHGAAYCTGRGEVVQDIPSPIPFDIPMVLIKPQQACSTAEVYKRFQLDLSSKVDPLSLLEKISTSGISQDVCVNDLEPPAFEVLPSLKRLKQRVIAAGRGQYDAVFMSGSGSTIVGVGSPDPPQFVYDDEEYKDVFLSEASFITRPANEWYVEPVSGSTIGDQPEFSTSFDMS
Sequence of LeIspE (P93841 89-401): as above
Sequence of AtIspF (Q9CAK8 53-231): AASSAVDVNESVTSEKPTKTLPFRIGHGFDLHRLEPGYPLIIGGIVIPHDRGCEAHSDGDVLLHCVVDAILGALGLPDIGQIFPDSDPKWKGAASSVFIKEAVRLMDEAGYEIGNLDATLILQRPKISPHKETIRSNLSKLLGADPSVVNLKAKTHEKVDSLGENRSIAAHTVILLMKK
Sequence of Ec IspE (P62615 whole entry): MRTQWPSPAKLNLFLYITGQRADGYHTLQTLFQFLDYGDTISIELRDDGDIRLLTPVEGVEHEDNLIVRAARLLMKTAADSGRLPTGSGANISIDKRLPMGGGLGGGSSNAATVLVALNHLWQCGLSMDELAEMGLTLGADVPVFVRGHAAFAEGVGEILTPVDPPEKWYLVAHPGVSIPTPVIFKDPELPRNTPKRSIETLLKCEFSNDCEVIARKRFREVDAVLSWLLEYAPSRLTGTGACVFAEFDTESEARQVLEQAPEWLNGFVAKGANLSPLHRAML
Sequence of AtIspD (P69834 62-302): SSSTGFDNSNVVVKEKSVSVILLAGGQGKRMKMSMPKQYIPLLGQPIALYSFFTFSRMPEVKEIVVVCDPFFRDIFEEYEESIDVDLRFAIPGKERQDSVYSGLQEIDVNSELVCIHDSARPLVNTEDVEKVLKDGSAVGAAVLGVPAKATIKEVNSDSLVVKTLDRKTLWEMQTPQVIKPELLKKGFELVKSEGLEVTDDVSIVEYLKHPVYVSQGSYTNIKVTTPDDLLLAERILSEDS

Clc1ccc(OCc2nnc(-c3nc4ccccc4s3)o2)c(Cl)c1 [HGN-333, 2-(benzo[d]thiazol-2-yl)-5-((2,4-dichlorophenoxy)methyl)-1,3,4-oxadiazole]
IC50 (AtIspF): 291 µM | Antibacterial Cx zone of inhibition (Corynebacterium xerosis [1]; 0.1 mM): 0 millimeters | Antibacterial Cx zone of inhibition (Corynebacterium xerosis [1]; 0.5 mM): 0 millimeters | Antibacterial Cx zone of inhibition (Corynebacterium xerosis [1]; 1 mM): 0 millimeters | MtIspD melting point change [2]: 1.3 °C | MtIspD melting temp [2]: 49.3 °C | LeIspE melting point change [3]: −1.75 °C | LeIspE melting temp [3]: 47.75 °C | KP score (Klebsiella pneumonia [4]): 0 | Bleaching (lettuce seeds; 0.15 mM): 0 | Germination (lettuce seeds; 0.15 mM): 0 | Root Dev. (lettuce seeds; 0.15 mM): 0 | Bleaching (lettuce seeds; 0.3 mM): 0 | Germination (lettuce seeds; 0.3 mM): 0 | Root Dev. (lettuce seeds; 0.3 mM): 0 | ML score (Micrococcus luteus [5]): 0 | melting point: 163 to 165 °C | IC50 (Ec IspE): 3 µM | Antibacterial Cp zone of inhibition ([6]; 0.1 mM): 0 millimeters | Antibacterial Cp zone of inhibition ([6]; 0.5 mM): 0 millimeters | Antibacterial Cp zone of inhibition ([6]; 1 mM): 0 millimeters | Antibacterial Bc zone of inhibition (Bacillus cereus [7]; 0.1 mM): 0 millimeters | Antibacterial Bc zone of inhibition (Bacillus cereus [7]; 0.5 mM): 0 millimeters | Antibacterial Bc zone of inhibition (Bacillus cereus [7]; 1 mM): 12.5 millimeters | EC score (Escherichia coli [8]): 0 | Antibacterial Bt zone of inhibition ([9]; 0.1 mM): 0 millimeters | Antibacterial Bt zone of inhibition ([9]; 0.5 mM): 15 millimeters | Antibacterial Bt zone of inhibition ([9]; 1 mM): 19 millimeters | CP score [10]: 0 | Antibacterial Ec zone of inhibition (Escherichia coli [11]; 0.1 mM): 0 millimeters | Antibacterial Ec zone of inhibition (Escherichia coli [11]; 0.5 mM): 0 millimeters | Antibacterial Ec zone of inhibition (Escherichia coli [11]; 1 mM): 0 millimeters | CX score (Corynebacterium xerosis [12]): 0 | BT score [13]: 0 | Antibacterial Ms zone of inhibition (Mycobacterium smegmatis [14]; 0.1 mM): 0 millimeters | Antibacterial Ms zone of inhibition (Mycobacterium smegmatis [14]; 0.5 mM): 0 millimeters | Antibacterial Ms zone of inhibition (Mycobacterium smegmatis [14]; 1 mM): 0 millimeters | Antibacterial Pa zone of inhibition (Pseudomonas aeruginosa [15]; 0.1 mM): 0 millimeters | Antibacterial Pa zone of inhibition (Pseudomonas aeruginosa [15]; 0.5 mM): 18 millimeters | Antibacterial Pa zone of inhibition (Pseudomonas aeruginosa [15]; 1 mM): 25 millimeters | BC score (Bacillus cereus [16]): 0 | Antibacterial Kp zone of inhibition (Klebsiella pneumonia [17]; 0.1 mM): 0 millimeters | Antibacterial Kp zone of inhibition (Klebsiella pneumonia [17]; 0.5 mM): 0 millimeters | Antibacterial Kp zone of inhibition (Klebsiella pneumonia [17]; 1 mM): 0 millimeters | Antibacterial Ml zone of inhibition (Micrococcus luteus [18]; 0.1 mM): 0 millimeters | Antibacterial Ml zone of inhibition (Micrococcus luteus [18]; 0.5 mM): 0 millimeters | Antibacterial Ml zone of inhibition (Micrococcus luteus [18]; 1 mM): 0 millimeters | effectiveness against Pseudomonas aeruginosa (Pseudomonas aeruginosa [19]): moderately effective | PA score (Pseudomonas aeruginosa [19]; score 0-3): 2 | MS score (Mycobacterium smegmatis [20]): 0 | IC50 (LeIspE): 31 µM | IC50 (Bt IspE [21]): 28 µM | KD app (ITC, words) (Bt IspE [22]): in the nanomolar range | binding stoichiometry (ITC) (Bt IspE [22]): 0.903 | ΔH° (ITC) (Bt IspE [22]): -8.6 kcal/mol | −TΔS (ITC) (Bt IspE [22]): -17.8 kcal/mol | entropic contribution −TΔS (ITC) (Bt IspE [22]; b178, unit not given): −17.8 | IC50 (AtIspD): 151 µM

From patent US11026426B2, “Oxadiazole and phenol derivatives as antibacterial and/or herbicidal agents” (NORTHERN ILLINOIS RESEARCH FOUNDATION, priority 2017, dated 2021)
